Results taken from patent publication US10669246B2, “Benzothiazol compounds and methods using the same for treating neurodegenerative disorders” (1ST Biotherapeutics, Inc., priority 2017, dated 2020).
Blank lines part the entries; values can stand above or below the compound they belong to.

Key:
[1] = Oral dose pharmacokinetic study in mice; conditions: for brain exposure compared with nilotinib: oral 5 mg/kg
[2] = test system: PFF-induced neuronal toxicity; assay: PFF-induced neuronal toxicity; type: cell-based; conditions: dose: 0.5, 1, 5, 10, 100 nM
[3] = test system: Aβ25-35 induced AD mice; assay: Step-through passive avoidance (STPA) test in Aβ25-35 induced AD mice; type: in vivo; conditions: orally once daily for 10 days; Example 4 1, 3 and 10 mg/kg, nilotinib 3 mg/kg
[4] = test system: Aβ25-35 induced AD mice; assay: Y-maze spontaneous alternation in Aβ25-35 induced AD mice; type: in vivo; conditions: orally once daily for 10 days; Example 4 1, 3 and 10 mg/kg, nilotinib 3 mg/kg
From the text: Y-maze test as a behavioral test was used to assess memory function and the willingness of rodents to explore new environments ICV injection of oligomeric Aβ25-35 peptide triggered neurotoxic effects and behavioral deficit in Y-maze test evaluating short term memory, by measurement of spontaneous alternation, while any change of motor symptom was not observed by measurement of locomotion.

[5] = test system: Aβ25-35 induced AD mice; assay: Lipid peroxidation in hippocampus homogenates of Aβ25-35 injected mice; type: in vivo; conditions: once daily oral dosing of 3 mg/kg and 10 mg/kg
From the text: 10 Days after ICV injection of oligomeric Aβ25-35 peptide, the hippocampus was dissected out. And lipid peroxidation level was quantified in the hippocampus homogenates. ICV injection of oligomeric Aβ25-35 peptide induced lipid peroxidation, a marker for oxidative stress. […] (FIG. 7)

[6] = test system: Phosphorylation of α-synuclein at ser129; assay: Phosphorylation of α-synuclein in α-synuclein PFF induced PD model; type: in vivo, mice; conditions: q.d.; for reduction of phosphorylation of α-synuclein at ser129: oral
[7] = test system: α-synuclein PFF induced PD mice; assay: Pole test in α-synuclein PFF induced PD mice; type: in vivo
[8] = test system: α-synuclein PFF-induced pathologic aggregation (Lewy body-like pathology); assay: α-synuclein PFF-induced pathologic aggregation; type: cell-based
[9] = in vivo; conditions: male, ICR, mouse, po, 5 mg/kg
[10] = molecular target: Recombinant human c-Kit (Homo sapiens (Human), UniProt P10721); assay: c-KIT kinase assay (ADP-Glo); type: biochemical; conditions: Table 3, kinase selectivity
Recombinant human c-Kit, sequence (P10721 26-976): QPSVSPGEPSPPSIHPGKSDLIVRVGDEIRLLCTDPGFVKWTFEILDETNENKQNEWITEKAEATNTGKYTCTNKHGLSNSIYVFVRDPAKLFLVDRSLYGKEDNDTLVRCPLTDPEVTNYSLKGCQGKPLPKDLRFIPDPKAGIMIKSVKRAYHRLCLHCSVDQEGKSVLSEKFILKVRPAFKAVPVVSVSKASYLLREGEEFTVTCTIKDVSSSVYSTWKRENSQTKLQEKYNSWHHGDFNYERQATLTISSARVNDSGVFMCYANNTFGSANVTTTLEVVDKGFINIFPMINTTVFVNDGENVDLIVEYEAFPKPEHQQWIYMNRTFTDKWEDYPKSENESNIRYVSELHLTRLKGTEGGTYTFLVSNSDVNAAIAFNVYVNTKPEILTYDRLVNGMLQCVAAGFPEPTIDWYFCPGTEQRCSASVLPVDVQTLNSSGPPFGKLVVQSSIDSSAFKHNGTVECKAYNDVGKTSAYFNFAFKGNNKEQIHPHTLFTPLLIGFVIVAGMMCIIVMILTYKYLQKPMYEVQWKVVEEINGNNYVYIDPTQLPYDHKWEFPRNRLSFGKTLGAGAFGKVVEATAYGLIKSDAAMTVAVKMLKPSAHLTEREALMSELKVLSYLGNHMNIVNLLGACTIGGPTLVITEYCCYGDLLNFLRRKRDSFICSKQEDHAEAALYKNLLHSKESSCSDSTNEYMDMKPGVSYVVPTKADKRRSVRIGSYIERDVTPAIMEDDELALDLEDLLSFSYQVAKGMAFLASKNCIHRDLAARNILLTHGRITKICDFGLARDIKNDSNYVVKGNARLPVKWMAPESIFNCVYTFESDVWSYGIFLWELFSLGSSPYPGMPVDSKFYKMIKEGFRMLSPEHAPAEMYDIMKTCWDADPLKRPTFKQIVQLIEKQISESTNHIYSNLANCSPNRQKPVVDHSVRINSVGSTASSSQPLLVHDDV
Protocol: ADP-Glo assay kit was purchased from Promega. Magnesium chloride (MgCl2), Manganese(II) chloride (MnCl2), Bovine serum albumin (BSA) and dimethylsulfoxide (DMSO) were purchased from Sigma-Aldrich. Tris-HCl buffer was purchased from Biosesang. c-Kit kinase and Poly (4:1 Glu, Tyr) Peptide were purchased from Signalchem.
c-Kit kinase activity was measured by Promega's ADP-Glo™ Assay.

[11] = molecular target: hERG (Homo sapiens (Human), UniProt Q12809); assay: hERG activity
hERG, sequence (Q12809 whole entry): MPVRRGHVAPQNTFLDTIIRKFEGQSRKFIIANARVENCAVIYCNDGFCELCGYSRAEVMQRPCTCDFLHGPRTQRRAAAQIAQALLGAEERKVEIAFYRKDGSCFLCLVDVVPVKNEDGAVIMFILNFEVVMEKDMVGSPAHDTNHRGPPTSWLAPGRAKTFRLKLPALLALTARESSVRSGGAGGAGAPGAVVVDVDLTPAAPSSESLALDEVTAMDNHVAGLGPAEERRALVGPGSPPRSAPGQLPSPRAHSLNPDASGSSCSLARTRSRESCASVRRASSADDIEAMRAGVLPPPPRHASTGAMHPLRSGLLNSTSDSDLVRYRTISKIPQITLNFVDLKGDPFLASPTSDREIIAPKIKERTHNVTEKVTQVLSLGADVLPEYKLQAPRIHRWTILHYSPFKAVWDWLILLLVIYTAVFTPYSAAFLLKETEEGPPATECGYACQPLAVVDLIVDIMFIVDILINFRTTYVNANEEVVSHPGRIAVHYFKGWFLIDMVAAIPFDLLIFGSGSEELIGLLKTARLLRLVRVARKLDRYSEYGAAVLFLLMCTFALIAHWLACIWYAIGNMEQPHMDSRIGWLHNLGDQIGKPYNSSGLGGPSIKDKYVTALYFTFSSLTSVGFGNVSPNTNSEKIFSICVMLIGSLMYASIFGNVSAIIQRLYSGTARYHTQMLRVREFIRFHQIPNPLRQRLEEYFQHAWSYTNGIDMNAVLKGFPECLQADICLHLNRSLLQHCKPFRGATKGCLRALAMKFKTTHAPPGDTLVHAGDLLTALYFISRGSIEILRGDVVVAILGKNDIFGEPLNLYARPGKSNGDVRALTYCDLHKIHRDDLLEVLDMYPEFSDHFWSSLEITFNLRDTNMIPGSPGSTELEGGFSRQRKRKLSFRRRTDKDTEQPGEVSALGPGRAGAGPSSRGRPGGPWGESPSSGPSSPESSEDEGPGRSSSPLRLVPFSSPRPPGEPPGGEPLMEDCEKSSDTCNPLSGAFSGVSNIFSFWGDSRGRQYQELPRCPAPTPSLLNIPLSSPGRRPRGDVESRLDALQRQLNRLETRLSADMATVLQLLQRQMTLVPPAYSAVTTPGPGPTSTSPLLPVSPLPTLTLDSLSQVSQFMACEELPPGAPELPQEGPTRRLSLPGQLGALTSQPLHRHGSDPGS

[12] = 10 mg/kg orally once daily for 5 months

Compound: Cc1ccncc1-c1ccc2nc(NC(=O)[C@@H]3C[C@@H]3F)sc2c1 [Example 4, (1S,2S)-2-fluoro-N-(6-(4-methylpyridin-3-yl)benzo[d]thiazol-2-yl)cyclopropane-1-carboxamide]
- PK profile [1]: good PK profiles
- AUCINF ([1]; PO 5 mg/kg, Table 5): 682041.7 ng·min/mL
- brain exposure compared with nilotinib [1]: better brain exposure than nilotinib
- PFF-induced neuronal toxicity [2]: inhibited PFF-induced neuronal toxicity in a dose dependent manner
- contextual long-term memory deficits [3]: very significantly and fully alleviated
- deficits of alternation behavior (spatial working memory) [4]: very significantly and fully alleviated
- lipid peroxidation (oxidative stress marker) in hippocampus [5]: completely inhibited
- reduction of phosphorylation of α-synuclein at ser129 ([6]; 3 mg/kg): about 50%
- reduction of phosphorylation of α-synuclein at ser129 ([6]; 10 mg/kg): ~80%
- improvement of pole climb down time ([7]; 0.3 mg/kg orally once daily for 5 months): 50%
- pole climb down time [7, 12]: completely recovered
- pole climb down time ([7]; 0.3, 1, 3 and 10 mg/kg orally once daily for 5 months): recovered by treatment of Example 4 in a dose-dependent manner
- α-synuclein PFF-induced pathologic aggregation (Lewy body-like pathology) [8]: decreased
- AUC(0-inf) ([9]; brain): 4140 ng·h/mL
- AUC(0-inf) ([9]; plasma): 11400 ng·h/mL
- Cmax ([9]; plasma): 3590 ng/mL
- Tmax ([9]; plasma): 30 min

Compound: Cc1c(F)cncc1-c1ccc2nc(NC(=O)[C@@H]3C[C@@H]3F)sc2c1 [Example 8, (1S,2S)-2-fluoro-N-(6-(5-fluoro-4-methylpyridin-3-yl)benzo[d]thiazol-2-yl)cyclopropane-1-carboxamide]
- PK profile [1]: good PK profiles
- brain exposure compared with nilotinib [1]: better brain exposure than nilotinib
- inhibition at 10 µM [11]: 12.6%
- Cmax ([9]; plasma): 4170 ng/mL
- Tmax ([9]; plasma): 60 min

Compound: C=C(C)c1ccc(C)c(-c2ccc3nc(NC(=O)[C@@H]4C[C@@H]4F)sc3c2)c1 [Example 17, (1S,2S)-2-fluoro-N-(6-(2-methyl-5-(prop-1-en-2-yl)phenyl)benzo[d]thiazol-2-yl)cyclopropane-1-carboxamide]
- IC50 [10]: > 10000 nM

Compound: Cc1cn(-c2cc(NC(=O)c3ccc(C)c(Nc4nccc(-c5cccnc5)n4)c3)cc(C(F)(F)F)c2)cn1 [Nilotinib, nilotinib, reference compound]
- contextual long-term memory deficits [3]: no significant effect
- deficits of alternation behavior (spatial working memory) [4]: partially alleviated
- effect on phosphorylation of α-synuclein ([6]; 3 and 10 mg/kg): not effective
- pole climb down time [7, 12]: just a slight improvement

The next lines start with the values.

- IC50 [10]: 1340 nM
Compound: Cc1ccc(O)cc1-c1ccc2nc(NC(=O)[C@@H]3C[C@@H]3F)sc2c1 [Example 14, (1S,2S)-2-fluoro-N-(6-(5-hydroxy-2-methylphenyl)benzo[d]thiazol-2-yl)cyclopropane-1-carboxamide]

- AUC(0-inf) ([9]; brain): 3950 ng·h/mL
- Kp ([9]; brain/plasma): 0.5
- AUC(0-inf) ([9]; plasma): 4860 ng·h/mL
Compound: Cc1ccncc1-c1ccc2sc(NC(=O)[C@@H]3C[C@@H]3F)nc2c1 [Example 6, (1S,2S)-2-fluoro-N-(5-(4-methylpyridin-3-yl)benzo[d]thiazol-2-yl)cyclopropane-1-carboxamide]

- AUC(0-inf) ([9]; brain): 1980 ng·h/mL
- AUC(0-inf) ([9]; plasma): 8480 ng·h/mL
Compound: Cc1ccncc1-c1ccc2nc(NC(=O)C3CC3)sc2c1 [Example 5, N-(6-(4-methylpyridin-3-yl)benzo[d]thiazol-2-yl)cyclopropanecarboxamide]

- IC50 [10]: 1020 nM
Compound: Cc1c(O)cccc1-c1ccc2nc(NC(=O)[C@@H]3C[C@@H]3F)sc2c1 [Example 22, (1S,2S)-2-fluoro-N-(6-(3-hydroxy-2-methylphenyl)benzo[d]thiazol-2-yl)cyclopropane-1-carboxamide]
